Experimental data reported in patent US20230104124A1, “N-PALMITOYLETHANOLAMIDE AND DOCOSAHEXAENOIC ACID FOR USE IN THE TREATMENT OF AUTISM SPECTRUM DISORDER AND OTHER DEPRESSIVE SYNDROMES” (EPITECH GROUP S.P.A., priority 2021, published 2023).

What was measured:
[1] = test system: C57 mice; test: Sociability, three-chamber test in healthy C57 mice; format: in vivo; settings: per os daily for 10 days, PEA-um 1 mg/kg, DHA 5 mg/kg (30 mg/kg DHA 17% titer)
Excerpt: (§1) Healthy male C57BL/6J (C57) mice and 90-day BTBR T+tf/J (BTBR) mice (The Jackson Laboratory, Bar Harbor, ME, USA) fed ad libitum and housed in controlled sleep/wake cycle cages were used in the in vivo trial. Before the start of the experimentation, the animals were subjected to an acclimatization period of 1 week considering all the experimental procedures and protocols, compliant with the principles of care and welfare of laboratory animals approved by the Italian Ministry of Health (Italian Legislative Decree 2014/26) and European directives (EU Directive 2010/63). […]
(§2) All the values reported in the results are expressed as mean ± standard error of the mean (SEM) of N observations (N = number of animals). The statistical differences in the ALLO dosage and behavioral score were analyzed with one-way ANOVA, followed by Sidak’s multiple comparisons. […]
(§3) In the last 10-minute phase, the preference of the mouse in staying in the empty chamber or in the presence of the mouse was evaluated (Crawley JN, Designing mouse behavioral tasks relevant to autistic-like behaviors, Ment. Retard Dev. Disabil. Res. Rev. 2004, 10: 248-258). The time spent in each chamber was detected by a camera coupled to video tracking software.

[2] = test system: mice with a simil-autistic phenotype; settings: cited from earlier work
[3] = test system: autistic children; settings: PEA-um 600 mg/day, 3-month treatment; cited from earlier work
[4] = test system: plasma ALLO levels; test: Plasma ALLO neurosteroid levels in BTBR mice; format: in vivo; settings: plasma 10 days after starting daily per os treatment, PEA-um 1 mg/kg, DHA 5 mg/kg (30 mg/kg DHA 17% titer)
Excerpt: as §1, §2

[5] = test system: BTBR mice; test: Self Grooming test in BTBR mice; format: in vivo; settings: monitored for 20 minutes, per os daily for 10 days, PEA-um 1 mg/kg, DHA 5 mg/kg (30 mg/kg DHA 17% titer)
Excerpt: as §1, §2
In the Self Grooming test, the mice were placed in an empty plexiglass cage (30x40 cm) and allowed to freely explore the arena. After 10 minutes of acclimatization, self grooming activity was monitored for 20 minutes. […]

[6] = test system: BTBR mice; test: Sociability, three-chamber test in BTBR mice; format: in vivo; settings: per os daily for 10 days, PEA-um 1 mg/kg, DHA 5 mg/kg (30 mg/kg DHA 17% titer)
Excerpt: as §1, §2, §3

[7] = test system: BTBR mice; test: Marble Burying test in BTBR mice; format: in vivo; settings: per os daily for 10 days, PEA-um 1 mg/kg, DHA 5 mg/kg (30 mg/kg DHA 17% titer), 8 animals per group
Excerpt: as §1, §2

[8] = intravenous infusion; during the 60 hours of administration; cited from earlier work

CCCCCCCCCCCCCCCC(=O)NCCO [PEA-um, N-palmitoylethanolamide]
Sociability (time spent in empty chamber or chamber occupied by a mouse) [1]: enhanced sociability to another mouse | Altered behavioral status [2]: modulating the altered behavioral status | Expression of pro-inflammatory hippocampal and serum cytokines IL-6, IL-1b and TNF-a [2]: reducing the expression of the pro-inflammatory hippocampal and serum cytokines IL-6, IL-1b and TNF-a | Clinical effect on autistic symptoms [3]: improves aggressiveness, cognitive and behavioral skills, and communication | Plasma ALLO levels [4]: significant reduction in plasma ALLO levels | Time spent self-grooming (repetitive behavior) [5]: did not demonstrate any reduction in the time (s) spent self-grooming | Sociability (time spent in empty chamber or chamber occupied by a mouse) [6]: did not demonstrate social improvements | Number of marbles buried in 15 min (obsessive behavior) [7]: obsessively bury the marbles

CC(=O)[C@H]1CC[C@H]2[C@@H]3CC[C@H]4C[C@H](O)CC[C@]4(C)[C@H]3CC[C@]12C [Zulresso, allopregnanolone]
Risks during administration [8]: risk of excessive sedation, sudden loss of consciousness or dizziness
